From patent US20060281806A1, “Treatment and inhibition of disease conditions using flexible heteroarotinoids” (priority 2005, published 2006)
“Also recorded” adds a separate entry of the source.

Assays:
[1] = system: CC-1 human cervical cell line; test: In vitro cytotoxicity (SRB growth inhibition) assay, CC-1; assay type: cell-based; parameters: dose or concentration left out as unconfirmed; conditions: 72 h
Protocol: (§1) The SHetA2, SHetA3, SHetA4, SHet50 and 9-cis-RA compounds were evaluated in 4 cervical carcinoma cell lines. The SiHa, CC-1 and C33a human cervical cell lines were maintained in Minimal Essential Media (MEM) containing Earle's salts and L-glutamine supplemented with nonessential amino acids, 1% sodium pyruvate, 10% fetal bovine serum (FBS) and antibiotic/antimycotic. The HT-3 cervical carcinoma cell line was cultured in McCoy's 5a medium supplemented with 10% FBS and antibiotic/antimycotic. Cells were inoculated into 96 well microtiter plates at densities of 1000 cells/well and incubated for 24 h prior to addition of drugs. Drugs were dissolved in dimethyl sulfoxide (DMSO) and diluted in complete medium, prior to addition to triplicate culture wells to achieve final concentrations of […]. Following drug addition, the plates were incubated for 72 h. The assay was terminated by the addition of cold TCA and the cells were stained with 0.4% sulforhodamine B (SRB) in 1% acetic acid. Bound stain was subsequently solubilized with 10 mM trizma base, and the absorbance was read on an automated plate reader at a wavelength of 560 nm. Growth inhibition was determined by dividing the average Optical Density (OD) of the triplicated treated cultures by the average OD of the triplicate control cultures treated with DMSO solvent only. This ratio was converted into a percentage by multiplying by 100. The potency (concentration required to induce half of the maximal activity—GI50) were derived from dose-response graphs generated with results from 3 to 5 individual experiments using GraphPad Software.

[2] = system: HT-3 cervical carcinoma cell line; test: In vitro cytotoxicity (SRB growth inhibition) assay, HT-3; assay type: cell-based, human; parameters: dose or concentration left out as unconfirmed; conditions: 72 h
Protocol: as §1

OVCAR-3 xenograft tumors [3] = test: OVCAR-3 xenograft tumor animal model, tumor growth; assay type: in vivo, mouse; conditions: 10 mg/kg/day by gavage, 5 days/week, 4 weeks; t-test on day 29
Protocol: Groups of 5 mice bearing OVCAR-3 xenografted tumors were gavaged daily with the indicated drugs in sesame oil (▪ closed square) or with sesame oil alone (∘ open circle). Tumor volumes were measured in 3 dimensions with calipers weekly. Each data point represents the average and standard error of the tumor volumes on the indicated treatment day relative to the tumor volume on day zero. Nu/nu mice were injected subcutaneously with one million OVCAR-3 cells and arbitrarily divided into five groups of six mice each. After three weeks of tumor growth, the animals were gavaged with sesame oil, 10 mg/kg/day 4-HPR, or the indicated Het five times per week for four weeks and the tumors were measured once per week. The tumor sizes were averaged and divided by the average size for each group on the day that treatment was initiated (day 0).
The OVCAR-3 cultures were maintained in RPMI media supplemented with 10% fetal bovine serum. All animal experimentation described in this manuscript was conducted in accord with accepted standards of humane animal care. Twenty-five female NU/NU CD-1 female mice (Charles Rivers Laboratories) were housed in a laminar flow room under sterile conditions at 83-85° F. The mice were quarantined for one week prior to the beginning of the study and were allowed access to autoclaved food (Purina 5001 mouse/rat sterilizable diet, St. Louis, Mo.) and water ad libitum. OVCAR-3 cells in log phase growth were harvested by trypsinization, resuspended in RPMI culture medium, and centrifuged at 3,000 rpm for 10 min. The pellets were resuspended in RPMI culture medium at a concentration of 7×10^6 cells/ml before implantation into mice. Animals were injected with 3.5×10^6 cells into the right scapular region with a 24-gauge needle/1 cc tuberculin syringe. Twenty-four hours after tumor implantation, animals were randomized into 5 groups of 5 animals each.
The Hets SHet50, SHetA2 and SHetA4 were synthesized and their receptor specificity determined as previously described (17,19). The 4-HPR compound was a gift from R.W. Johnson Pharmaceutical Research Institute, Raritan, N.J. All retinoids were dissolved in super refined sesame oil (Croda, Inc., Parsippany, N.J.) and stored at −80° C. Since the retinoids are light sensitive, all manipulations involving retinoids were performed under subdued lighting. […] Tumors were measured with calipers weekly, and tumor volumes were calculated using the formula: volume=length×width×height. Tumor growth was determined by the dividing the volume of the tumor at each weekly measurement by the volume on the first day of treatment. Animal weights and clinical signs of overall health status and cutaneous toxicities were recorded weekly.

OVCAR-3 xenograft tumors [4] = test: Histochemical and immunohistochemical evaluation of xenograft tumors (glands, MUC-1, TUNEL); assay type: in vivo, mouse; conditions: 10 mg/kg/day by gavage; end of treatment; versus control
Text: On the last day of treatment, the animals were sacrificed and then the tumors were removed, fixed in neutral buffered formalin and embedded in paraffin. Five micron sections of the paraffin-embedded tumors were stained with hematoxylin and eosin (H&E) for histologic evaluation, and with the TUNEL (terminal deoxynucleodidyl transferase-mediated biotin-deoxyuridine triphosphate nick) FragEL kit (Oncogene Research Products, Boston, Mass.) for evaluation of apoptosis according to manufacturers instructions. MUC-1 expression was detected in tumor sections using a mouse monoclonal antibody to human MUC-1 (Pharmingen, San Diego, Calif.) and the Histostain-Plus AEC Kit (Zymed Laboratories, San Francisco, Calif.) according to manufacturers instructions. Briefly, endogenous peroxidase activity in deparaffinized sections was quenched with 3% H2O2 in methanol and then sections were incubated in serum blocking solution, and subsequently in primary antibody, diluted 1:50 in phosphate buffered saline (PBS), overnight at 4° C. in a humid chamber. Sections were then washed with PBS, treated with biotinylated secondary antibody for 15 minutes, followed by enzyme conjugate for 10 minutes. […] Tumor sections were scored for number of glands (quantified in one H&E stained sections and 3 MUC-1-stained sections) and MUC-1 and TUNEL staining (based on staining intensity and percent positive cells). […]

B16 mouse melanoma = test: B16 melanoma syngeneic tumor model; assay type: in vivo; conditions: oral 60 mg/kg/day
Protocol: FIG. 12. Various Xenograft tumors stained with CD34 antibodies (brown) to identify endothelium. The B16 mouse melanoma cell line was established as a syngeneic tumor in an immunocompetent mouse model and the human Caki renal cancer and A2780 ovarian xenograft tumors in immunocompromised mice. The treated mice were gavaged with 60 mg/kg/day SHetA2 and the untreated were gavaged with solvent only. The tumors were excised and sections were stained with the anti-CD34 antibody to detect endothelial cells (brown stain).
Survival was the primary endpoint of those studies. […] Tumor growth was the primary endpoint of the renal cancer study.

**Q.** `CC1(C)CC(C)(C)c2cc(NC(=S)Nc3ccc([N+](=O)[O-])cc3)ccc2S1` [SHetA2] was tested. Which “Efficacy: percent growth inhibition relative to the untreated control” value [1] did it give?
**A.** 58%

**Q.** And the “Efficacy: percent growth inhibition relative to the untreated control” value [2]?
**A.** 92%

**Q.** What about the “growth of xenograft tumors versus sesame oil control” value (OVCAR-3 xenograft tumors [3]) of the same compound?
**A.** significantly inhibited the growth; also recorded: significantly less

**Q.** And the “MUC-1 expression in xenograft tumors” value (OVCAR-3 xenograft tumors [4])?
**A.** increase staining for mucin-1 (MUC1) protein

**Q.** What about the “gland formation (numbers of glands) in xenograft tumors” value (OVCAR-3 xenograft tumors [4]) of the same compound?
**A.** greatest degree of gland induction

**Q.** What about the survival (B16 mouse melanoma; melanoma model) of the same compound?
**A.** improved survival

**Q.** What about the “development of blood vessels inside tumors (anti-CD34 staining)” value (B16 mouse melanoma; melanoma) of the same compound?
**A.** inhibited the development of blood vessels
